In patent US20040258633A1, “Composition containing monoterpenes for topical oral administration” (Gisol Ltd., priority 2000, published 2004):

Assay: Example 5 salt solution mouth wash, periodontal index (PI)
Assay type: in vivo
Details: 10% salt solution mouth wash, 30 seconds, twice a day, for a week; point of origin = 1
Method: Using solutions having a concentration of 10% the salts presented in table 3 below were applied after tooth brushing, in the form of a mouth wash. The mouth wash was applied for 30 seconds, twice a day, for a week. The following results were measured according to the periodontal index (PI): […]

SMILES	PI (periodontal index)
[Br-].[Br-].[Mg+2] [MgBr2]	1.58
[Cl-].[Na+] [NaCl]	1.32
[Cl-].[K+] [Kcl]	1.47
